Blank lines part the entries; values can stand above or below the compound they belong to.
Key:
[1] = molecular target: Tyrosine-protein kinase JAK2 (Homo sapiens) (UniProt O60674); assay: Inhibition of JAK2 (unknown origin) at 1 uM relative to control
[2] = molecular target: T1, Adenosine receptor A1 (Homo sapiens, UniProt P30542); assay: Binding affinity to adenosine receptor A1 (unknown origin) assessed as inhibition constant
T1 sequence (P30542 whole entry): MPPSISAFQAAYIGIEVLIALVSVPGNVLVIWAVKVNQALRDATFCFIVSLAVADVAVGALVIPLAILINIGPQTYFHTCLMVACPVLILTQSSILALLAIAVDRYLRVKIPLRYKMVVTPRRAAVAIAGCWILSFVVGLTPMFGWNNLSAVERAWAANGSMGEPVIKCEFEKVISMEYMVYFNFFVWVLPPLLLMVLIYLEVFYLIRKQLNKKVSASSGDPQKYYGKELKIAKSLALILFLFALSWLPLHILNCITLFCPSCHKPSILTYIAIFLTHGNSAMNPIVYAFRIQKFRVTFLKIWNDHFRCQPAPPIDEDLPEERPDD

[3] = molecular target: Adenosine receptor A2a (Homo sapiens, UniProt P29274); assay: Binding affinity to adenosine receptor A2a (unknown origin) assessed as inhibition constant
[4] = molecular target: Tyrosine-protein kinase BTK (Homo sapiens, UniProt Q06187); assay: Inhibition of BTK (unknown origin)
[5] = molecular target: Fibroblast growth factor receptor 4 (Homo sapiens, UniProt P22455); assay: Inhibition of FGFR4 (unknown origin)
[6] = molecular target: Fibroblast growth factor receptor 3 (Homo sapiens, UniProt P22607); assay: Inhibition of FGFR3 (unknown origin)
[7] = molecular target: Fibroblast growth factor receptor 2 (Homo sapiens, UniProt P21802); assay: Inhibition of FGFR2 (unknown origin)
[8] = molecular target: Fibroblast growth factor receptor 1 (Homo sapiens, UniProt P11362); assay: Inhibition of FGFR1 (unknown origin)
[9] = molecular target: Serine/threonine-protein kinase B-raf (Homo sapiens, UniProt P15056); assay: Inhibition of BRAF (unknown origin)
[10] = molecular target: T2, Macrophage colony-stimulating factor 1 receptor (Homo sapiens, UniProt P07333); assay: Inhibition of CSF1R (unknown origin)
[11] = molecular target: T2, Macrophage colony-stimulating factor 1 receptor; assay: Inhibition of FMS (unknown origin)
[12] = molecular target: T3, Receptor-type tyrosine-protein kinase FLT3 (Homo sapiens, UniProt P36888); assay: Inhibition of FLT3 (unknown origin)
T3 sequence (P36888 whole entry): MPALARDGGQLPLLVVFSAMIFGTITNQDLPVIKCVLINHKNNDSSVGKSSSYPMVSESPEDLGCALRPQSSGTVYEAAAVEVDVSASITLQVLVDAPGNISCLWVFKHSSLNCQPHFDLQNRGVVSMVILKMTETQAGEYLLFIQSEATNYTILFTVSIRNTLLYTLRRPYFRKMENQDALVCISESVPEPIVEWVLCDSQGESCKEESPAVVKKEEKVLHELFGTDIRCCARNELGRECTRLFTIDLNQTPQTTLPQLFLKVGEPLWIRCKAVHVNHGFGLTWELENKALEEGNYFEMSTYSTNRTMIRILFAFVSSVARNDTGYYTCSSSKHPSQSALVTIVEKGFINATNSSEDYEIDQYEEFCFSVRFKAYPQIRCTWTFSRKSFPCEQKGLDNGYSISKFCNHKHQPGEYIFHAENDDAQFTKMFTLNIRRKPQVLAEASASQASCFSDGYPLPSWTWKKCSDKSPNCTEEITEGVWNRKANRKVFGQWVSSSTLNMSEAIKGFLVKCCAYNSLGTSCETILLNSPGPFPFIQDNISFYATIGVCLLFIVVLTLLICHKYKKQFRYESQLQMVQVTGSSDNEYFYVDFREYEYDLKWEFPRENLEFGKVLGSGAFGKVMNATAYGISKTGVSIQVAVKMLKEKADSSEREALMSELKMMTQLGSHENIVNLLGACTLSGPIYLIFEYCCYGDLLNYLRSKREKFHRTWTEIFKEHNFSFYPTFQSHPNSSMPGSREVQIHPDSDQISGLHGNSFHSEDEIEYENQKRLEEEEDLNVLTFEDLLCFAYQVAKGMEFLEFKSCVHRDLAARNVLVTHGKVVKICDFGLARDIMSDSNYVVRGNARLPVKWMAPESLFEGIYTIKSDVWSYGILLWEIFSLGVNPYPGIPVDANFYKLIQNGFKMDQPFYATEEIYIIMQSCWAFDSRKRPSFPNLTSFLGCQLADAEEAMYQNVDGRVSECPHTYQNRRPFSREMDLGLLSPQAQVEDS

[13] = molecular target: Fibroblast growth factor receptor (Homo sapiens) (UniProt P22607+P11362+P22455+P21802); assay: Inhibition of FGFR (unknown origin) at 10 uM relative to control; assay type: protein assay
[14] = molecular target: Protein kinase C (PKC) (Homo sapiens) (UniProt O94806+P41743+P17252+P05129+Q05655+P05771+Q05513+Q02156+P24723+Q15139+Q04759); assay: Inhibition of PKC (unknown origin) at 10 uM relative to control; assay type: protein assay
[15] = molecular target: T4, High affinity nerve growth factor receptor (Homo sapiens, UniProt P04629); assay: Inhibition of TRKA (unknown origin) at 10 uM relative to control
Target sequence in this assay (P04629 33-796 limits assumed): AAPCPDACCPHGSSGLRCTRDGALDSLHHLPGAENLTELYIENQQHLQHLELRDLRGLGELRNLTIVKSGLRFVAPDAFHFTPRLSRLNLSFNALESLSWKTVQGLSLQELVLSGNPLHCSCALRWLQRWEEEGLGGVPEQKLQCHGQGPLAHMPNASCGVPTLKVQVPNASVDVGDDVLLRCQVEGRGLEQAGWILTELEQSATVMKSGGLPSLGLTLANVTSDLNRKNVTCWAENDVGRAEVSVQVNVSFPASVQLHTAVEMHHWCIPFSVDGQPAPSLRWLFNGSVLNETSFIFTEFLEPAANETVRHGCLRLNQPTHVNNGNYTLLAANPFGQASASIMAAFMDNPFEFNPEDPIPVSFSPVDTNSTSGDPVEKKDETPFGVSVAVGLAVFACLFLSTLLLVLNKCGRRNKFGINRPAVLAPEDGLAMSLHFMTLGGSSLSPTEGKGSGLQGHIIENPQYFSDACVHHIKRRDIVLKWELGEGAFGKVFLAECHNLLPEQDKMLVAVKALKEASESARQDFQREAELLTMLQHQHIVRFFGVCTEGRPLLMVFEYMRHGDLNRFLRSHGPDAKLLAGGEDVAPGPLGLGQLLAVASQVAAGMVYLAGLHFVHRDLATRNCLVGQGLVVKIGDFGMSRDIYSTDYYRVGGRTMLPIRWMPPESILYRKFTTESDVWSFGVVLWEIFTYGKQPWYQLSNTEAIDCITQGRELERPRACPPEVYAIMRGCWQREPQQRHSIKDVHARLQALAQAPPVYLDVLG

[16] = molecular target: Receptor-type tyrosine-protein kinase FLT3 (Homo sapiens, UniProt P36888, D835Y); assay: Inhibition of FLT3 D835Y (unknown origin)
[17] = organism: Homo sapiens; assay: Inhibition of FLT (unknown origin) at 10 uM relative to control
[18] = molecular target: Maternal embryonic leucine zipper kinase (Homo sapiens) (UniProt Q14680); assay: Inhibition of MELK (unknown origin) at 10 uM relative to control
[19] = molecular target: T4, High affinity nerve growth factor receptor; assay: Inhibition of TRKA (unknown origin)

Chain of Tyrosine-protein kinase JAK2 (Homo sapiens) (O60674 whole entry): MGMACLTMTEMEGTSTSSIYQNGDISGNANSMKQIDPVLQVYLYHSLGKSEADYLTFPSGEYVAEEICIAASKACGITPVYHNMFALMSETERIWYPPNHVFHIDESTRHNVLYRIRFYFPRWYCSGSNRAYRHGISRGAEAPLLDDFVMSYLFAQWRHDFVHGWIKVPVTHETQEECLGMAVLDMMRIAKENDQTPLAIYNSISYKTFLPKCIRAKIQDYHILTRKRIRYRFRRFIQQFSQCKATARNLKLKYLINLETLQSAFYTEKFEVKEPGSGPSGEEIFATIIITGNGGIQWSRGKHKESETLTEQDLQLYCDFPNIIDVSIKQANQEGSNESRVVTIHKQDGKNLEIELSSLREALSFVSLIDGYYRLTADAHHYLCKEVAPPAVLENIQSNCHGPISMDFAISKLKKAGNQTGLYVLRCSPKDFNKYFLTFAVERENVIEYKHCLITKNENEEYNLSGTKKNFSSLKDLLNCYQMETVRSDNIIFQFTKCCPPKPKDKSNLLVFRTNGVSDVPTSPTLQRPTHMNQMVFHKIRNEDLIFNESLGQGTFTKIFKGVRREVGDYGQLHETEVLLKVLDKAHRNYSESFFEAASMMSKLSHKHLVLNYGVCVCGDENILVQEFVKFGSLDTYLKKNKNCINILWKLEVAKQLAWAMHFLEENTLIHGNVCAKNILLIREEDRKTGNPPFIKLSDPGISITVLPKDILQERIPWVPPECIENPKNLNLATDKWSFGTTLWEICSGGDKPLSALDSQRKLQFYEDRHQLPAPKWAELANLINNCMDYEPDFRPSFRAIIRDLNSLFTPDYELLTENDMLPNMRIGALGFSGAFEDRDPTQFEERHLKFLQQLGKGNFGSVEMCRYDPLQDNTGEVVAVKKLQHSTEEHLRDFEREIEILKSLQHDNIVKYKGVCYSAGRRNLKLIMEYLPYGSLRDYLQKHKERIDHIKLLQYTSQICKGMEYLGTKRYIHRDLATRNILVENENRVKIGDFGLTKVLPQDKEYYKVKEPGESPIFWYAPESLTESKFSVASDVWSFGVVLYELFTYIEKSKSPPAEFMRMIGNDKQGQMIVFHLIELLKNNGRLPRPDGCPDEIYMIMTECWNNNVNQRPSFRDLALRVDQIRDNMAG
T2 sequence (P07333 whole entry): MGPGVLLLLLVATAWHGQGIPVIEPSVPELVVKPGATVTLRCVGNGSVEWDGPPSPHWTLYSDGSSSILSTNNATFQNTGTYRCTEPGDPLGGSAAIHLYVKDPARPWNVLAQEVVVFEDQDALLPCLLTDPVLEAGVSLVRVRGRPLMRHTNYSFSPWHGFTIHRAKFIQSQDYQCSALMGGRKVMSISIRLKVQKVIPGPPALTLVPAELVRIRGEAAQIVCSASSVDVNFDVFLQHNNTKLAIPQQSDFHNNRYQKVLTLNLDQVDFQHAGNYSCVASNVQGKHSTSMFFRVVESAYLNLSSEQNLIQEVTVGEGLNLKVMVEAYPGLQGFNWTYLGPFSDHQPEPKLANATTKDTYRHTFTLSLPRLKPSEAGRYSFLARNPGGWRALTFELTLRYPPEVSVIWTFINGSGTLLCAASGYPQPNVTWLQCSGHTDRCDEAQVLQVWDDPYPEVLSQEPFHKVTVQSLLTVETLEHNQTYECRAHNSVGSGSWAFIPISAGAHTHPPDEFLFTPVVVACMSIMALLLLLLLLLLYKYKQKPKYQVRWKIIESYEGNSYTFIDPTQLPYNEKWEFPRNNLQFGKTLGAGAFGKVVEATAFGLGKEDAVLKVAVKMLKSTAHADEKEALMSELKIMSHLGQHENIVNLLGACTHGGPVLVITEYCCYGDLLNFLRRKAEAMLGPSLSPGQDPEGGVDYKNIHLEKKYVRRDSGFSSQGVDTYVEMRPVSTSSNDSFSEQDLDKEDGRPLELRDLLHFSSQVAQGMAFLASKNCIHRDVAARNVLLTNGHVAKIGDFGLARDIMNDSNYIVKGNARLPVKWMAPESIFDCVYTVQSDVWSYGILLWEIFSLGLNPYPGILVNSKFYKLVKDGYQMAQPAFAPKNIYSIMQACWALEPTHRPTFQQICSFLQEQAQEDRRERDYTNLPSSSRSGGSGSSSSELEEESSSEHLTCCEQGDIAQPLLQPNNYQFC
Chain of Fibroblast growth factor receptor 2 (P21802 whole entry): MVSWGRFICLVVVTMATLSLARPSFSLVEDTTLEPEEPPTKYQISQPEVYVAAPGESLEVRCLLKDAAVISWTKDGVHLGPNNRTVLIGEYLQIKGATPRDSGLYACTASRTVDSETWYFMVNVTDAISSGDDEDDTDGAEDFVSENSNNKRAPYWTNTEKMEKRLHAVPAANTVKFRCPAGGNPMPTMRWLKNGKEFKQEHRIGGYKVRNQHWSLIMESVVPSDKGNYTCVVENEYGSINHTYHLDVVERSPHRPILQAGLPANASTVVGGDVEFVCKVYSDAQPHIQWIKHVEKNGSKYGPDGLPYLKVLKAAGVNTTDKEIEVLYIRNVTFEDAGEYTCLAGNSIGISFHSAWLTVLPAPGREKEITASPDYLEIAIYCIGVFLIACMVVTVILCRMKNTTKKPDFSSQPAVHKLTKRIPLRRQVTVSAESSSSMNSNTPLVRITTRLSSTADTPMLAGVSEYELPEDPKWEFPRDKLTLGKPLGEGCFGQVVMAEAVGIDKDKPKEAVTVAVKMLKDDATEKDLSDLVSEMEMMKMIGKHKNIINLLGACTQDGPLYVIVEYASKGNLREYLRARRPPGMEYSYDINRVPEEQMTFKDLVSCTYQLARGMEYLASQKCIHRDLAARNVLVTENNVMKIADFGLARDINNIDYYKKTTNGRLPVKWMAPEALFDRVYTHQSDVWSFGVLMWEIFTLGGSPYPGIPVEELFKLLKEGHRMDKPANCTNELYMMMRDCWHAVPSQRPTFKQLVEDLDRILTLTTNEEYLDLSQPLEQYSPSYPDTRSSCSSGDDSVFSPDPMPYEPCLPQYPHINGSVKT
Chain of Adenosine receptor A2a (P29274 whole entry): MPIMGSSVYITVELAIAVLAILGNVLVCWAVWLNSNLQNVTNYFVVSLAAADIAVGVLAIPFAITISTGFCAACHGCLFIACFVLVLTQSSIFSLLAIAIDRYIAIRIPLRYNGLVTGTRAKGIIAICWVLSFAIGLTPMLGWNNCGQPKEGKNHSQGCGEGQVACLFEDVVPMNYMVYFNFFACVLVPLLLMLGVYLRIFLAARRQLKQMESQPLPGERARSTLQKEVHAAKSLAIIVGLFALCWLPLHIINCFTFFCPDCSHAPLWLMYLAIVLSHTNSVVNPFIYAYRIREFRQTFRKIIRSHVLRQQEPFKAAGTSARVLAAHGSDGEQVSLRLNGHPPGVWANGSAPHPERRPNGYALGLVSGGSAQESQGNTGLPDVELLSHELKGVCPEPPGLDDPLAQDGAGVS
Chain of Maternal embryonic leucine zipper kinase (Homo sapiens) (Q14680 whole entry, looked up): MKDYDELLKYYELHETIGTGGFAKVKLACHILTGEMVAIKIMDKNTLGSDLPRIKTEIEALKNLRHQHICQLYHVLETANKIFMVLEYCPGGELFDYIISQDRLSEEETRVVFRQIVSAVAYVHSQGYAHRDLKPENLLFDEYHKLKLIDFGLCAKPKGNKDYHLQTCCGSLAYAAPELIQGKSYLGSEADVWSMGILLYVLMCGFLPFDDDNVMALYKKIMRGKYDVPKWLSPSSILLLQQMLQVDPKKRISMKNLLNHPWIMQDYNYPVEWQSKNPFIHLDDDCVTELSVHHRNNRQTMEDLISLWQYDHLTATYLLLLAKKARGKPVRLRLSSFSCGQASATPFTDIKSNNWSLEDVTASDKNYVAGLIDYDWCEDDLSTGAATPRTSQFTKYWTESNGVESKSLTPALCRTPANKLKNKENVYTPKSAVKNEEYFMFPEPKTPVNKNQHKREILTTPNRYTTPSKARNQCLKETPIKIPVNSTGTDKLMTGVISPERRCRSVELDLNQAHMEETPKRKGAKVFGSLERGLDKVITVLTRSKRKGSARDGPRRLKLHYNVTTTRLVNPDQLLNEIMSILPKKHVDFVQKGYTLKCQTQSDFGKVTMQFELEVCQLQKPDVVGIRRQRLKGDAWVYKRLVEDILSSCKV

Structure (SMILES): CNC(=O)c1ccccc1Nc1c(C(F)(F)F)cnc2[nH]c(-c3ccc(F)cc3)cc12
inhibition [1]: 88%

Structure (SMILES): O=c1[nH]nc(NC2CCCC2)c2nnn(Cc3cccs3)c12
Ki [2]: 46.7 nM | Ki [3]: 895 nM

Structure (SMILES): C=CC(=O)N1CC[C@H](n2cc(-c3cc4ccccc4o3)c3c(N)n[nH]c(=O)c32)C1
IC50 [5]: < 10 nM | IC50 [6]: < 10 nM | IC50 [7]: < 10 nM | IC50 [8]: < 10 nM

Structure (SMILES): O=C(NCc1ccc(C(F)(F)F)nc1)Nc1ccc(Oc2ncnc3[nH]ccc23)cc1
IC50 [10]: 20 nM

The remaining lines, values ahead:

IC50 [4]: 0.5 nM
Structure (SMILES): COc1ccc(F)cc1C(=O)NCc1ccc(-c2nn(C3CCCC3)c3c(=O)[nH]nc(N)c23)cc1

EC50 [9]: 493 nM
Structure (SMILES): COc1cncc(-c2cn(-c3c(F)ccc(NS(=O)(=O)C(C)C)c3F)nn2)c1

inhibition [1]: 68%
Structure (SMILES): CN(c1ncccc1CNc1c(C#N)cnc2[nH]ccc12)S(C)(=O)=O

IC50 [11]: < 100 nM | IC50 [12]: < 0.1 µM
Structure (SMILES): COc1ncc(CNc2ccc(Cc3c[nH]c4ncc(C(F)(F)F)cc34)c(F)n2)cc1F

inhibition [13]: 35% | inhibition [14]: 35% | inhibition [15]: 55% | IC50 [16]: 1830 nM | inhibition [17]: 45% | inhibition [18]: 35% | IC50 [12]: 13.6 µM | IC50 [19]: 5.8 µM
Structure (SMILES): CN(C)S(=O)(=O)Nc1cccc(-c2cnn(-c3ccc(C(F)(F)F)cc3)c2)c1
